Drawing on paper PMC6035319 (Saudi Pharmaceutical Journal : SPJ, 2018), this text covers IC50 for one compound.

The target in one test is T1, CYP1A2 (Homo sapiens, UniProt P05177).
T1 sequence (P05177 2-516): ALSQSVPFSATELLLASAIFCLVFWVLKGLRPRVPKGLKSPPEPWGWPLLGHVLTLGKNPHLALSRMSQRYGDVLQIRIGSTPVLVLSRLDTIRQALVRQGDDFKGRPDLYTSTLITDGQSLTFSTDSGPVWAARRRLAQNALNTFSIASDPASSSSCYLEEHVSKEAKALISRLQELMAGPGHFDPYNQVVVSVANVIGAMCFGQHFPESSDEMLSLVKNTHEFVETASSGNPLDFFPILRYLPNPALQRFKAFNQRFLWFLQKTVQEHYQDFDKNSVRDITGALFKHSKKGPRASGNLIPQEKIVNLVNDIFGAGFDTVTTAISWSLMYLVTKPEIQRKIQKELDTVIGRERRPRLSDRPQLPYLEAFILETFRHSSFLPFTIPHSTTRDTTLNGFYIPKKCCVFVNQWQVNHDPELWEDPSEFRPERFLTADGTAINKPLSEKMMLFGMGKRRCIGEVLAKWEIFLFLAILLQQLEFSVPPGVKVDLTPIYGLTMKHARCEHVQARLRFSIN
Briefly: HPLC of acetaminophen formed from phenacetin in pooled human liver microsomes. It counts as biochemical. Background: Microsomes from liver hold many membrane-bound enzymes, among them those of drug oxidation.

Another test addresses CYP3A4 (Homo sapiens, UniProt P08684). It counts as biochemical.

Chain of CYP3A4 (P08684 2-503): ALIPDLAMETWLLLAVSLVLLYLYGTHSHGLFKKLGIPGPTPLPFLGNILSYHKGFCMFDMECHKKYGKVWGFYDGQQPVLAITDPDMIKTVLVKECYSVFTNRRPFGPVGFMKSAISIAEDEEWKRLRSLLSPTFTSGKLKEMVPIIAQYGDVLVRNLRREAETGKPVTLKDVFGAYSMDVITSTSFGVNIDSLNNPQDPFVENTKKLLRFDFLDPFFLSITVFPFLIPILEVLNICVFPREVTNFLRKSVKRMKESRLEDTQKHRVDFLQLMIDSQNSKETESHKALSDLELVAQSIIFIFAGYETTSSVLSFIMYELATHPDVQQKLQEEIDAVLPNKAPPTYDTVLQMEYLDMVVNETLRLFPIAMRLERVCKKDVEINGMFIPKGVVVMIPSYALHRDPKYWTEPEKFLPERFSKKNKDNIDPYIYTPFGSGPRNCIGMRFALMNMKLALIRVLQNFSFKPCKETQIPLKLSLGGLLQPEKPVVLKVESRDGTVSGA

Regarding `CC1=CC(=O)C(C(C)C)=CC1=O` [thymoquinone], the 50% inhibitory concentration (IC50) was 26.5 ± 2.9 µM at CYP1A2 and 25.2 ± 3.1 µM on CYP3A4.

As a reminder, the IC50 is the concentration that inhibits the measured activity by half. A higher IC50 goes with weaker potency.
